Data taken from patent US6207389A, “Methods of controlling T lymphocyte mediated immune responses” (HRC Research and Development Limited Partnership, priority 1995, dated 2001).

Experiments:
[1] = test system: PBMC from children with recent onset diabetes; test: Proliferative response of PBMC to peptide fragments in the presence of IL2 (Example 4); format: cell-based, human; conditions: patient PBMC
Procedure: (§1) Cultures containing 5×10^4 cells were incubated for 7 days at 37° C. in serum-free HL-1 medium (Ventrex, Portland, Me.) containing 1 μg antigen per well for test samples.
(§2) After an overnight pulse of 1 μci ^3 H thymidine, cultures were harvested and submitted to liquid scintillation counting. Proliferation was expressed as cpm ^3 HTdR×10^-3.
Control cultures were stimulated with 1 μg ovalbumin or horse or human albumin. […] A 4 h. pulse with 1 μCi ^3 H thymidine was used.
Each synthetic peptide was tested with PBMC from at least 3 children with recent onset diabetes. Stimulation Index=^3 H Thymidine Incorporation in peptide-stimulated culture in cpm divided by Thymidine incorporation in control culture in cpm.
Peptides corresponding to stretches of the amino acid sequence of human p69 were also synthesised and the proliferative response to patient PBMC cultures to these peptides were similarly tested, in the presence of IL2.

[2] = test system: PBMC from children with recent onset diabetes; test: T cell proliferation assay with BSA and rec-p69, patients (Example 3); format: cell-based, human; conditions: 1 μg antigen
Procedure: as §1
(§3) Control cultures were treated with 1 μg human, chick or horse albumin or an equivalent volume of control recombinant antigen prepared from lysates of E. coli carrying wild type plasmid.
as §2
(§4) A parallel set of cell cultures was incubated with the same test antigens or control agents in the presence of 10 U human IL2.

[3] = test system: PBMC from healthy subjects; test: T cell proliferation assay with BSA and rec-p69, healthy subjects (Example 3); format: cell-based, human; conditions: with or without IL2
Procedure: as §1, §3, §2, §4

[4] = test system: PBMC cultures from patients with recent onset diabetes; test: Proliferative responses to antigen mixtures (Example 5); format: cell-based, human; conditions: patient PBMC, no IL2 (FIG. 9A)
Procedure: Proliferation assays were conducted as described in Example 3. Control cultures were treated with 1 μg horse albumin or with the peptides P2240, P2269, P2270 or H1029. Results with control antigens were similar and data were pooled.
Responses were expressed as mean of triplicate cultures; variations were <12%. Responses in the absence of IL2 are shown in FIG. 9, Panel A. Parallel cultures were treated with the same antigens and antigen mixtures in the presence of 10U IL2.

[5] = test system: PBMC from a child with recent onset diabetes; test: Proliferative response, patient cells (Example 6); format: cell-based, human; conditions: 1 μg antigen per culture, 7 days
Procedure: Replicate cultures of PBMC from a child with recent onset diabetes and a healthy control subject were stimulated with P2267, Tep69, Herpes simplex antigen or a mixture of P2267 and Tep69 (1 μg antigen per culture) as described in Example 3. After 2 days of incubation, one patient cell culture and one healthy control culture were harvested for RNA extraction and measurement of IL2 receptor transcripts by RT-PCR, as described by Cheung et al., (1991), J. Biol. Chem., v. 266, pp. 8667-8670. PCR was used to amplify a 739 bp fragment of IL2R coding sequence from patient and control and also a 430 bp region in the human β-actin gene of patient.
Remaining cultures were incubated for a further 5 days and used to determine proliferative responses as described in Example 3.

female NOD mice [6] = test: IDDM development after immunotherapy with BSA or ABBOS in adjuvant (Example 7); format: in vivo, mouse; conditions: 150 μg BSA or 50 μg ABBOS in incomplete Freund's Adjuvant sc at 5 weeks, ip booster one week later; up to 9 months
Procedure: (§5) A control group (13 mice) was injected with incomplete Freund's Adjuvant only and a further control group (13 mice) was untreated. A booster injection of the same treatment material was given intraperitoneally one week later.
IDDM development was followed by testing for urine glucose and when urine glucose was detected, blood glucose was then determined.

female NOD mice [7] = test: Circulating IgG anti-BSA antibodies by particle concentration fluoroimmunoassay (Example 7); format: in vivo, mouse; conditions: same treatment; over 34 weeks
Procedure: as §5
Circulating IgG anti-BSA antibodies were measured over the 34 weeks of the experiment, using the particle concentration fluoroimmunoassay described by the inventors in International Patent Application No. PCT/CA93/000304.

[8] = test system: NOD mice lymph node cells; test: Immunization and T cell proliferation assay, NOD mice (Example 11); format: in vivo, mouse; conditions: 50 μg sc in complete Freund's adjuvant, recall with 1 μg antigen in vitro
Procedure: (§6) Recombinant truncated p69 was prepared by expression of a portion of the cDNA of IS4. The cDNA was cut a few nucleotides downstream of the 3' terminal of exon 3 and was subcloned into the PET™ expression system according to the manufacturer's recommendations (Novagen Inc., Madison, Wis.). The truncated protein contains 100 amino acids and is essentially identical with the murine molecule.
(§7) Antigens were injected subcutaneously in complete Freunds' adjuvant, and local lymph nodes and blood samples were collected 10 days later. Triplicate cultures of 2×10^5 lymph node cells were incubated for 5 days in serum-free HGM-af Medium™ (Promo Cell, Heidelberg, Germany) in the presence of 1 μg of protein or synthetic peptide as recall antigen. Six hours before harvesting, 1 μCi ^3 H-thymidine (6.7 Ci/mmol) was added to the wells, and isotope incorporation was analysed by liquid scintillation counting. Values are expressed as mean counts per minute ± standard deviation (mean cpm ± SD).
(§8) Young male NOD mice (H2^G7, IE^-/-) received a single immunization with truncated p69 (as encoded by IS4 cDNA) in complete adjuvant, and antibody and T cell proliferative responses were measured 8-10 days later. MHC disparate C57/B6 (H2^b, IE^-/-) and SJL (H2^s, IE^-/-) mice served as non-diabetes prone controls (FIG. 31).

[9] = test system: C57/B6 and SJL mice lymph node cells; test: Immunization and T cell proliferation assay, non-diabetes prone control mice (Example 11); format: in vivo, mouse; conditions: 50 μg sc in complete Freund's adjuvant
Procedure: as §6, §7, §8

NOD mice = test: Serum antibodies to BSA and p69 by fluoroimmunoassay, NOD mice (Example 11); format: in vivo, mouse; conditions: 50 μg sc in complete Freund's adjuvant
Procedure: (§9) Male non-obese diabetic mice (NOD, 6-7 weeks old) were immunized with 50 μg BSA, ABBOS-short peptide ([…]), recombinant truncated p69 or p69 T cell epitope peptide `Tep69` ([…]) (10). Recombinant truncated p69 was prepared by expression of a portion of the cDNA of IS4. The cDNA was cut a few nucleotides downstream of the 3' terminal of exon 3 and was subcloned into the PET™ expression system according to the manufacturer's recommendations (Novagen Inc., Madison, Wis.).
(§10) Antigens were injected subcutaneously in complete Freunds' adjuvant, and local lymph nodes and blood samples were collected 10 days later. […] Six hours before harvesting, 1 μCi ^3 H-thymidine (6.7 Ci/mmol) was added to the wells, and isotope incorporation was analysed by liquid scintillation counting. Values are expressed as mean counts per minute ± standard deviation (mean cpm ± SD).
(§11) Serum antibodies to BSA and p69 were measured by particle concentration fluoroimmunoassay, as described (11). […] Bound fluorescence was read by an automated ScreenMachine™ instrument (IDEXX, Portland, Me.). Data are expressed in kilofluorescence units relative to a standard mouse serum analyzed in parallel within each assay plate.
(§12) Young male NOD mice (H2^G7, IE^-/-) received a single immunization with truncated p69 (as encoded by IS4 cDNA) in complete adjuvant, and antibody and T cell proliferative responses were measured 8-10 days later. […]

C57/B6 and SJL mice = test: Serum antibodies to BSA and p69 by fluoroimmunoassay, control mice (Example 11); format: in vivo, mouse; conditions: 50 μg sc in complete Freund's adjuvant
Procedure: as §9, §10, §11, §12

bovine serum albumin [BSA]
PBMC proliferative response [1]: significantly higher than responses to control antigens or peptides | proliferative response of patient samples ([2]; absence of IL2): marked proliferative response | proliferative response of patient samples ([2]; presence of 10 U IL2): increased response | proliferative response of samples from healthy subjects [3]: no significant proliferative response | PBMC proliferation in the absence of IL2 [4]: gave PBMC proliferation in the absence of IL2 | proliferation of patient cells [5]: 6740±480 cpm | development of IDDM (female NOD mice [6]): complete prevention of IDDM | anti-BSA antibody response (female NOD mice [7]): massive antibody response | T cell proliferative response after immunisation [8]: vigorous B- and T cell responses | T cell proliferative response after immunisation [9]: vigorous B- and T cell responses | antibody response after immunisation (anti-p69 or anti-BSA) (NOD mice): vigorous B- and T cell responses | antibody response after immunisation (anti-p69 or anti-BSA) (C57/B6 and SJL mice): vigorous B- and T cell responses
